Data set [1] concerns the target T1, human Branched Chain Amino Acid Aminotransferase cytosolic form (hBCATc) (Homo sapiens, UniProt P54687).
T1 construct: made in house; host or cells: E. coli BL21(DE3)
T1 sequence (P54687 1-386): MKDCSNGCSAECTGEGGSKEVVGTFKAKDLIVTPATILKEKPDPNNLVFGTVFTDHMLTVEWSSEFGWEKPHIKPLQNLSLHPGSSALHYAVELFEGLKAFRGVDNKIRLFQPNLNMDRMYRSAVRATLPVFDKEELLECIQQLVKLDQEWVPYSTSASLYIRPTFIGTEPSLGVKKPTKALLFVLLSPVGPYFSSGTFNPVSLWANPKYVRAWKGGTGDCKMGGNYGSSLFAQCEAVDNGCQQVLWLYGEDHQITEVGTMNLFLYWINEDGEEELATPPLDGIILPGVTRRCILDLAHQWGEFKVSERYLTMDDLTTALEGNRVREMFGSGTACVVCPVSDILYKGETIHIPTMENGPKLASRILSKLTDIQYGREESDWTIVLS
The data set is described as follows: In vitro coupled enzyme assay (glutamate dehydrogenase, NADH formation), human BCATc. The data set is classed as biochemical. Conditions: recombinant human BCATc, 37° C., 25 mM phosphate buffer pH 7.8; several values in a cell = repeat determinations; read-out: RhBCATc. An outline of the steps: (§1)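 At 37 °C in 25 mM phosphate pH 7.8 with 2 mM DTT, 1.25 μg His-tag-purified E. coli-expressed BCAT transaminated 750 μM L-leucine with 500 μM α-ketoglutarate and 10 μM PLP. Glutamate was coupled via glutamate dehydrogenase (1 mM NAD+, 4 mM ADP) to NADH formation at 340 nm. Compounds were added in DMSO up to 5% v/v.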

Data set [2] concerns the target T2, rat BCAT cytosolic form (Rattus norvegicus, UniProt P54690).
T2 construct: made in house; host or cells: E. coli BL21(DE3)
T2 sequence (P54690 1-411): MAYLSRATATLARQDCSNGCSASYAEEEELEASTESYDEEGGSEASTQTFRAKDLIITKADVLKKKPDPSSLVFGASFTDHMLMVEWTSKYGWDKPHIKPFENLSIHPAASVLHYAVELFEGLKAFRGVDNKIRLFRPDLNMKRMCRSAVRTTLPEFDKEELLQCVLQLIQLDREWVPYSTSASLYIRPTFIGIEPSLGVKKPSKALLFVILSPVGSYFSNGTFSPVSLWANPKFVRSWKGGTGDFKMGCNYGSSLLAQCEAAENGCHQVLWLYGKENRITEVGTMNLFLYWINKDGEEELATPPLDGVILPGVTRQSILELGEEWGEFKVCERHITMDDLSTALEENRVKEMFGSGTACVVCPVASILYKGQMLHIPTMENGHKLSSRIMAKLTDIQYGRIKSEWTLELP
Nature of the data set: In vitro coupled enzyme assay (glutamate dehydrogenase, NADH formation), rat BCATc. Conditions: recombinant rat BCATc, 37° C., 25 mM phosphate buffer pH 7.8; several values in a cell = repeat determinations; read-out: RrBCATc. The format is biochemical. Put shortly: as §1

In patent publication US20050004167A1, “Branched chain amino acid-dependent aminotransferase inhibitors and their use in the treatment of neurodegenerative diseases” (WARNER-LAMBERT COMPANY LLC, priority 2001, published 2005) one finds IC50 and melting point data, which are given here for 25 compounds.

Where “and” joins values, the source holds several entries; their conditions need not be identical. Equal entries are not always repeated.

With `O=C(NNS(=O)(=O)c1ccccc1)c1ccc2[nH]c3c(c2c1)CCCC3` [Example 2, 2,3,4,9-Tetrahydro-1H-carbazole-6-carboxylic acid 2-(phenylsulfonyl)hydrazide], the melting point (in general, the temperature, or range, at which the solid turns liquid) was greater than 250 °C. The IC50 in data set [1] was 2.6 µM. The IC50 in data set [2] amounted to 0.13 µM.
`COc1cccc2cc(C(=O)NNS(=O)(=O)c3ccccc3)oc12` [Example 5, 7-Methoxy-2-benzofurancarboxylic acid 2-(phenylsulfonyl)hydrazide] yielded a melting point of 164 to 165 °C. For the same compound, in data set [1], the IC50 was 5.76 µM and 3 µM. In addition, in data set [2], the IC50 was 0.86 µM and 0.46 µM and 0.53 µM.
The compound `O=C(NNS(=O)(=O)c1cccc(Cl)c1)c1ccc2oc3ccccc3c2c1` [Example 16, 2-Dibenofurancarboxylic acid 2-[(3-chlorophenyl)sulfonyl]hydrazide] displayed a melting point of 208 to 209 °C. Moreover, the IC50 in data set [1] is 3 µM and 3.1 µM. In data set [2], the IC50 was 0.39 µM and 0.2 µM.
`O=C(NNS(=O)(=O)c1ccccc1Cl)c1ccc2oc3ccccc3c2c1` [Example 17, 2-Dibenzofurancarboxylic acid 2-[(2-chlorophenyl)sulfonyl]hydrazide]: the melting point fell in the range of 235 to 236 °C. Further, the IC50 in data set [1] came to 11.4 µM. Besides, the IC50 in data set [2] was 1.1 µM and 0.54 µM.
Turning to `O=C(NNS(=O)(=O)c1cc(Cl)cc(Cl)c1)c1ccc2oc3ccccc3c2c1` [Example 18, Dibenzofuran-2-carboxylic acid 2-(3,5-dichlorophenylsulfonyl)hydrazide], the melting point is 231 to 233 °C. Besides, the IC50 in data set [1] was found to be 7.9 µM. Further, the IC50 in data set [2] is 0.53 µM and 0.4 µM.
As for `Cc1c(Cl)cccc1S(=O)(=O)NNC(=O)c1ccc2oc3ccccc3c2c1` [Example 19, Dibenzofuran-2-carboxylic acid 2-(3-chloro-2-methyl-phenylsulfonyl)hydrazide], the melting point is 192 to 194 °C. Besides, in data set [1], the IC50 turned out to be 6.7 µM. For the same compound, the IC50 in data set [2] came to 0.22 µM.
The compound `O=C(NNS(=O)(=O)c1ccc(F)cc1)c1cc2cc(Cl)ccc2o1` [Example 22, 2-Benzofurancarboxylic acid, 5-chloro-2-[(4-fluorophenyl)]sulfonyl hydrazide] displayed a melting point of 229.4 to 230.5 °C. The IC50 in data set [1] was 24.6 µM. In data set [2], the IC50 was found to be 4.1 µM.
Take `COc1cccc2cc(C(=O)NNS(=O)(=O)c3ccc(F)cc3)oc12` [Example 23, 2-Benzofurancarboxylic acid, 7-methoxy-, 2-[(4-fluoro-phenyl)sulfonyl]hydrazide]: the melting point fell in the range of 182.7 to 183.3 °C. The IC50 in data set [1] is 17.8 µM. In addition, the IC50 in data set [2] was 5.4 µM.
The corresponding values for `O=C(NNS(=O)(=O)c1ccc(F)cc1)c1ccc2oc3ccccc3c2c1` [Example 24, 2-Dibenzofurancarboxylic acid 2-[(4-fluorophenyl)sulfonyl]hydrazide] are 206.3 to 207 °C, 24 µM and 1.2 µM.
For `O=C(NNS(=O)(=O)c1ccc(F)cc1Cl)c1ccc2oc3ccccc3c2c1` [Example 25, 2-Dibenzofurancarboxylic acid 2-[(2-chloro-4-fluorophenyl)sulfonyl]hydrazide], the melting point fell in the range of 227.5 to 227.8 °C. Moreover, the IC50 in data set [1] came to 21.9 µM. In addition, the IC50 in data set [2] was 1.8 µM.
Regarding `N#Cc1cccc(S(=O)(=O)NNC(=O)c2ccc3oc4ccccc4c3c2)c1` [Example 26, 2-Dibenzofurancarboxylic acid 2-[(3-cyanophenyl)sulfonyl]hydrazide], the melting point was in the range of 234 to 236 °C. Also, in data set [1], the IC50 was found to be 138 µM. Further, the IC50 in data set [2] was 15.2 µM and 6.9 µM.
In the case of `N#Cc1cccc(S(=O)(=O)NNC(=O)c2cc3cc(Cl)ccc3o2)c1` [Example 27, 2-Benzofurancarboxylic acid, 5-chloro-, 2-[(3-cyanophenyl)sulfonyl]hydrazide], the melting point lay in the range of 208.5 to 210 °C. Moreover, the IC50 in data set [1] turned out to be 171 µM. Further, in data set [2], the IC50 turned out to be 45.2 µM.
Taken in the same sequence, the figures for `O=C(NNS(=O)(=O)c1ccc(F)cc1Cl)c1cc2cc(Cl)ccc2o1` [Example 30, 2-Benzofurancarboxylic acid, 5-chloro-, 2-[(2-chloro-4-fluorophenyl)sulfonyl]-hydrazide] were 204.6 to 206.2 °C, 25 µM and 5.7 µM.
In turn, `O=C(NNS(=O)(=O)c1cc(Cl)cc(Cl)c1)c1cc2cc(Cl)ccc2o1` [Example 31, 2-Benzofurancarboxylic acid, 5-chloro-, 2-[(3,5-dichlorophenyl)sulfonyl]-hydrazide] gave a melting point of 242.5 to 243.3 °C. Further, the IC50 in data set [1] is 2.6 µM and 4.3 µM. Besides, the IC50 in data set [2] was 0.81 µM.
With `O=C(NNS(=O)(=O)c1cc(C(F)(F)F)cc(C(F)(F)F)c1)c1ccc2oc3ccccc3c2c1` [Example 32, 2-Dibenzofurancarboxylic acid, 2-[[3,5-bis(trifluoromethyl)phenyl]sulfonyl]-hydrazide], the melting point lay in the range of 244.7 to 245.5 °C. In addition, in data set [1], the IC50 is greater than 100 µM. In data set [2], the IC50 was greater than 100 µM.
As for `O=C(NNS(=O)(=O)c1cccc(F)c1)c1ccc2oc3ccccc3c2c1` [Example 35, 2-Dibenzofurancarboxylic acid 2-[(3-fluorophenyl)sulfonyl]hydrazide], the melting point was 222.6 to 223.3 °C. In addition, the IC50 in data set [1] is 3.57 µM. For the same compound, the IC50 in data set [2] came out at 0.31 µM.
In turn, `Cc1ccc(F)cc1S(=O)(=O)NNC(=O)c1ccc2oc3ccccc3c2c1` [Example 36, 2-Dibenzofurancarboxylic acid 2-[(5-fluoro-2-methylphenyl)sulfonyl]hydrazide] returned a melting point of 210.1 to 210.5 °C. For the same compound, the IC50 in data set [1] is 17.5 µM and 18.2 µM. Further, in data set [2], the IC50 was determined as 1.1 µM.
As to `O=C(NNS(=O)(=O)c1ccc(F)c(F)c1)c1ccc2oc3ccccc3c2c1` [Example 37, 2-Dibenzofurancarboxylic acid 2-[(3,4-difluorophenyl)sulfonyl]hydrazide], the melting point fell in the range of 210.1 to 210.5 °C. For the same compound, the IC50 in data set [1] worked out at 41.3 µM. For the same compound, in data set [2], the IC50 was found to be 3.5 µM.
Consider `O=C(NNS(=O)(=O)c1ccc(F)c(Cl)c1)c1ccc2oc3ccccc3c2c1` [Example 38, 2-Dibenzofurancarboxylic acid 2-[(3-chloro-4-fluorophenyl)sulfonyl]hydrazide], for which the melting point was in the range of 210.8 to 211.6 °C. Also, the IC50 in data set [1] turned out to be 29.9 µM. Also, the IC50 in data set [2] is 0.77 µM and 0.61 µM.
Regarding `COc1cccc(S(=O)(=O)NNC(=O)c2ccc3oc4ccccc4c3c2)c1` [Example 39, 2-Dibenzofurancarboxylic acid 2-[(3-methoxyphenyl)sulfonyl]hydrazide], the melting point is 199.5 to 200.5 °C. Besides, the IC50 in data set [1] is 2.29 µM. The IC50 in data set [2] came to 0.21 µM.
Compound `O=C(NNS(=O)(=O)c1cccc(F)c1)c1cc2cc(Cl)ccc2o1` [Example 40, 2-Benzofurancarboxylic acid, 5-chloro-2-[(3-fluorophenyl)sulfonyl]hydrazide] came in with a melting point of 174.4 to 174.7 °C. For the same compound, the IC50 in data set [1] was 4.86 µM and 8.8 µM. Further, the IC50 in data set [2] turned out to be 1 µM.
For `O=C(NNS(=O)(=O)c1ccc(F)c(F)c1)c1cc2cc(Cl)ccc2o1` [Example 41, 2-Benzofurancarboxylic acid, 5-chloro-2-[(3,4-difluorophenyl)sulfonyl]hydrazide], the melting point lay within 193.8 to 195 °C. In addition, the IC50 in data set [1] is 28.8 µM. Further, in data set [2], the IC50 was determined as 14.5 µM.
As to `O=C(NNS(=O)(=O)c1ccccc1Cl)c1cc2cc(Cl)ccc2o1` [Example 42, 2-Benzofurancarboxylic acid, 5-chloro-2-[(2-chlorophenyl)sulfonyl]hydrazide], the melting point fell in the range of 200.3 to 200.5 °C. The IC50 in data set [1] is 5.3 µM and 10.4 µM. Also, in data set [2], the IC50 was determined as 1.3 µM.
In turn, `O=C(NNS(=O)(=O)c1cccc(Cl)c1)c1cc2cc(Cl)ccc2o1` [Example 43, 2-Benzofurancarboxylic acid, 5-chloro-2-[(3-chlorophenyl)sulfonyl]hydrazide] displayed a melting point of 202.9 to 205.2 °C. For the same compound, in data set [1], the IC50 is 1.8 µM. In addition, the IC50 in data set [2] is 0.47 µM.
For the compound `O=C(NNS(=O)(=O)c1ccccc1)c1cnc2ccccc2c1` [Example 154, Quinoline-3-carboxylic acid 2-(phenylsulfonyl)hydrazide], the IC50 in data set [1] came out at 24.2 µM; in data set [2] it was 3.6 µM.
